Consider 37 compounds from patent US6608027B1, “Macrocyclic peptides active against the hepatitis C virus” (Boehringer Ingelheim (Canada) Ltd, priority 1999, dated 2003).

This experiment deals with T1, NS3 protease (Hepatitis C virus genotype 1b, UniProt P26663).
T1 construct: expressed in transfected cells; host or cells: Huh-7 human hepatoma cells, transient co-transfection (CMV promoter)
As to the kind of experiment: NS3 protease cell-based assay (SEAP reporter, Huh-7 cells). Also noted: species or system HCV. To be noted: SEAP activity, 24-hour incubation, read-out: cell. act. (EC50 code). The text has this:
This assay is done with Huh-7 cells, a human cell line derived from a hepatoma, co-transfected with 2 DNA constructs: one (called NS3) expressing part of the HCV non-structural polyprotein fused to the tTA protein through an NS5A-NS5B cleavage site in the following order: NS3-NS4A-NS4B-NS5A-(NS5B)tTA where (NS5B) represents the 6 first amino acids of NS5
B. This polyprotein is expressed under the control of the CMV promoter, the other (called SEAP) expressing the reporter protein, secreted alkaline phosphatase (SEAP), under the regulation of a tTA-responsive promoter. The first construct leads to the expression of a polyprotein from which the different mature proteins are released through cleavage by the NS3 protease. It is believed that the mature viral proteins forms a complex at the membrane of the endoplasmic reticulum. tTA is a fusion protein, described by Gossen and Bujard (Proc. Natl. Acad. Sci. USA 89 (1992): 5547-5551), which contains a DNA-binding domain and a transcriptional activator. Release of the tTA protein requires an NS3-dependent cleavage at the NS5A-NS5B cleavage site between NS5A and itself. This last cleavage allows tTA to migrate to the nucleus and transactivate the SEAP gene. Therefore, reduction of NS3 proteolytic activity leads to confinement of tTA to the cytoplasm and concomitant decrease in SEAP activity.
To control for cellular activities other than inhibition of NS3 protease which are due to the compound, a parallel co-transfection is done with a construct expressing tTA alone and the same reporter construct such that SEAP activity is independent of the NS3 protease.
Protocol of the assay: Huh-7 cells, grown in CHO-SFMII (Life Technologies)+10% FCS (fetal calf serum) were co-transfected with the two DNA constructs in the following proportions: 7 μg NS3+500 ng SEAP+[…] FuGENE (Boehringer Mannheim) per 4×10^6 Huh-7 cells. After 5 hours at 37° C., the cells were washed, trypsinized and plated (at 80 000 cells/well) in 96-well plates containing a range of concentrations of the compounds to be tested. After a 24-hour incubation period, the SEAP activity in the medium was measured with the Phospha-Light kit (Tropix).
Analysis of the percent inhibition of SEAP activity with respect to compound concentration was performed with the SAS software to obtain the EC50.

By EC50 is commonly meant the concentration needed to bring the measured effect to its halfway point.

T1 sequence (P26663 1658-1711): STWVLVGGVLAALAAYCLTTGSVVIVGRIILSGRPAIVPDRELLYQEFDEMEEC
T1 sequence (P26663 1027-1657): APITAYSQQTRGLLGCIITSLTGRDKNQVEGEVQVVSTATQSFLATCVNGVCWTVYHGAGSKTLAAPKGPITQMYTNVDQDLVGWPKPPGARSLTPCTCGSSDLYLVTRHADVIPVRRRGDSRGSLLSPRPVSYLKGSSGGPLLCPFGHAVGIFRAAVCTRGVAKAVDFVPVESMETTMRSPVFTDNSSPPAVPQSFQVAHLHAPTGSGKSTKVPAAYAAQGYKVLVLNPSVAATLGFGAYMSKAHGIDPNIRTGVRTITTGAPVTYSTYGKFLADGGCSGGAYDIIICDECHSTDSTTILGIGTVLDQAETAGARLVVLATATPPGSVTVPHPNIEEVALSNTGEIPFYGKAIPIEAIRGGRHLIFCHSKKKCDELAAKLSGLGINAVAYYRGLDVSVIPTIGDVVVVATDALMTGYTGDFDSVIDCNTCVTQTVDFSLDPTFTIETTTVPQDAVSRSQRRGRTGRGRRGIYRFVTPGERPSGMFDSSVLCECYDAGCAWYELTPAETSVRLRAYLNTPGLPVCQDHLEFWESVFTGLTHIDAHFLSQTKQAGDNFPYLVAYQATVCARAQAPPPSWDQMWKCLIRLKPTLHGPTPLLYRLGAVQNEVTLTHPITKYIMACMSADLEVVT

Take `CNc1nc(-c2cc(O[C@@H]3C[C@H]4C(=O)N[C@]5(C(=O)O)CC5/C=C\CCCCC[C@H](NC(=O)OC5CCCC5)C(=O)N4C3)c3ccc(OC)cc3n2)cs1` (stereo partly shown) [Compound 811]: the EC50 was no more than 1 µM. Consider `COc1ccc2c(O[C@@H]3C[C@H]4C(=O)N[C@]5(C(=O)O)CC5/C=C\CCCCC[C@H](NC(=O)OC5CCCC5)C(=O)N4C3)cc(-c3csc(NC4CC4)n3)nc2c1` (stereo partly shown) [Compound 825], for which the EC50 is no more than 1 µM. As to `COc1ccc2c(O[C@@H]3C[C@H]4C(=O)N[C@]5(C(=O)O)CC5CCCCCCC[C@H](NC(=O)OC5CCCC5)C(=O)N4C3)cc(-c3nc(C(C)C)cs3)nc2c1` (stereo partly shown) [Compound 906], the half-maximal effective concentration (EC50) is no more than 1 µM.

On to `COc1ccc2c(O[C@@H]3C[C@H]4C(=O)N[C@]5(C(=O)O)CC5/C=C\CCCCC[C@H](NC(=O)OC5CCCC5)C(=O)N4C3)cc(-c3csc(NC4CCC4)n3)nc2c1` (stereo partly shown) [Compound 826], for which the EC50 is no more than 1 µM. Take `COc1ccc2c(O[C@@H]3C[C@H]4C(=O)N[C@]5(C(=O)O)C[C@H]5/C=C\CCCCC[C@H](NC(=O)OC(C)(C)C)C(=O)N4C3)cc(-c3csc(N)n3)nc2c1` [Compound 731]: the EC50 is no more than 1 µM.

For `COc1ccc2c(O[C@@H]3C[C@H]4C(=O)N[C@]5(C(=O)O)CC5/C=C\CCCCC[C@H](NC(=O)OC(C)(C)C)C(=O)N4C3)cc(-c3nc(C)no3)nc2c1` (stereo partly shown) [Compound 717], the EC50 is no more than 1 µM. As for `COc1ccc(-c2cc(O[C@@H]3C[C@H]4C(=O)N[C@]5(C(=O)O)C[C@H]5/C=C\CCCCC[C@H](NC(=O)OC(C)(C)C)C(=O)N4C3)c3ccc(OC)cc3n2)nc1` [Compound 737], the EC50 was no more than 1 µM.

As to `COc1ccc2c(O[C@@H]3C[C@H]4C(=O)N[C@]5(C(=O)O)CC5/C=C\CCCCC[C@H](NC(=O)OC5CCCC5)C(=O)N4C3)cc(-c3csc(NC(=O)OCC(C)C)n3)nc2c1` (stereo partly shown) [Compound 819], the half-maximal effective concentration (EC50) is no more than 1 µM. Turning to `COCc1cc(O[C@@H]2C[C@H]3C(=O)N[C@]4(C(=O)O)C[C@H]4/C=C\CCCCC[C@H](NC(=O)OC(C)(C)C)C(=O)N3C2)c2ccc(OC)cc2n1` [Compound 727], the concentration giving a half-maximal response (EC50) is greater than 1 µM. The same measure for `COc1ccc2c(O[C@@H]3C[C@H]4C(=O)N[C@]5(C(=O)O)CC5/C=C\CCCCC[C@H](NC(=O)OC(C)(C)C)C(=O)N4C3)cc(-n3ccc(C)n3)nc2c1` (stereo partly shown) [Compound 738]: no more than 1 µM; for `COc1ccc2c(O[C@@H]3C[C@H]4C(=O)N[C@]5(C(=O)O)C[C@H]5/C=C\CCCCC[C@H](NC(=O)OC(C)(C)C)C(=O)N4C3)cc(-c3csc(NC(C)=O)n3)nc2c1` [Compound 702]: no more than 1 µM. In the case of `CCNc1nc(-c2cc(O[C@@H]3C[C@H]4C(=O)N[C@]5(C(=O)O)CC5CCCCCCC[C@H](NC(=O)OC(C)(C)C)C(=O)N4C3)c3ccc(OC)cc3n2)cs1` (stereo partly shown) [Compound 703], the EC50 is no more than 1 µM. `COc1ccc2c(O[C@@H]3C[C@H]4C(=O)N[C@]5(C(=O)O)CC5/C=C\CCCCC[C@H](NC(=O)OC5CCCC5)C(=O)N4C3)cc(-c3csc(NC4CCCCC4)n3)nc2c1` (stereo partly shown) [Compound 828]: the EC50 was no more than 1 µM. Consider `COc1ccc2c(O[C@@H]3C[C@H]4C(=O)N[C@]5(C(=O)O)C[C@H]5/C=C\CCCCC[C@H](NC(=O)OC(C)(C)C)C(=O)N4C3)cc(-c3nccs3)nc2c1` [Compound 705], for which the EC50 was no more than 1 µM. With `COc1ccc2c(O[C@@H]3C[C@H]4C(=O)N[C@]5(C(=O)O)C[C@H]5/C=C\COCCC[C@H](NC(=O)OC(C)(C)C)C(=O)N4C3)cc(-c3ccccc3)nc2c1` [Compound 701], the EC50 is greater than 1 µM. With `COC(=O)Nc1nc(-c2cc(O[C@@H]3C[C@H]4C(=O)N[C@]5(C(=O)O)CC5/C=C\CCCCC[C@H](NC(=O)OC5CCCC5)C(=O)N4C3)c3ccc(OC)cc3n2)cs1` (stereo partly shown) [Compound 818] the figure was no more than 1 µM; with `COc1ccc2c(O[C@@H]3C[C@H]4C(=O)N[C@]5(C(=O)O)CC5/C=C\CCCCC[C@H](NC(=O)OC(C)(C)C)C(=O)N4C3)cc(-c3nnc(C)o3)nc2c1` (stereo partly shown) [Compound 716], greater than 1 µM. With `COc1ccc2c(O[C@@H]3C[C@H]4C(=O)N[C@]5(C(=O)O)C[C@H]5/C=C\CCCCC[C@H](NC(=O)OC(C)(C)C)C(=O)N4C3)cc(-c3csc(NC(C)C)n3)nc2c1` [Compound 741], the EC50 was no more than 1 µM. `COc1ccc2c(O[C@@H]3C[C@H]4C(=O)N[C@]5(C(=O)O)CC5CCCCCCC[C@H](NC(=O)OC5CCCC5)C(=O)N4C3)cc(-c3csc(N)n3)nc2c1` (stereo partly shown) [Compound 908]: the EC50 was no more than 1 µM.

`COc1ccc2c(O[C@@H]3C[C@H]4C(=O)N[C@]5(C(=O)O)CC5/C=C\CCCCC[C@H](NC(=O)OC(C)(C)C)C(=O)N4C3)cc(-c3nc(C(C)C)cs3)nc2c1` (stereo partly shown) [Compound 725]: the concentration giving a half-maximal response (EC50) was no more than 1 µM. Consider `COc1ccc2c(O[C@@H]3C[C@H]4C(=O)N[C@]5(C(=O)O)CC5/C=C\CCCCC[C@H](NC(=O)OC(C)(C)C)C(=O)N4C3)cc(-c3nccn3C)nc2c1` (stereo partly shown) [Compound 726], for which the EC50 was no more than 1 µM. `COc1ccc2c(O[C@@H]3C[C@H]4C(=O)N[C@]5(C(=O)O)CC5/C=C\CCCCC[C@H](NC(=O)OC5CCCC5)C(=O)N4C3)cc(-c3csc(NC(C)C)n3)nc2c1` (stereo partly shown) [Compound 822]: the EC50 was no more than 1 µM. As for `CCNc1nc(-c2cc(O[C@@H]3C[C@H]4C(=O)N[C@]5(C(=O)O)C[C@H]5/C=C\CCCCC[C@H](NC(=O)OC(C)(C)C)C(=O)N4C3)c3ccc(OC)cc3n2)cs1` [Compound 708], the EC50 was no more than 1 µM. In the case of `COc1ccc2c(O[C@@H]3C[C@H]4C(=O)N[C@]5(C(=O)O)C[C@H]5/C=C\CCCCC[C@H](NC(=O)OC(C)(C)C)C(=O)N4C3)cc(-c3ccccn3)nc2c1` [Compound 704], the EC50 is no more than 1 µM.

For `COc1ccc2c(O[C@@H]3C[C@H]4C(=O)N[C@]5(C(=O)O)CC5/C=C\CCCCC[C@H](NC(=O)OC(C)(C)C)C(=O)N4C3)cc(-n3cnc(C)c3)nc2c1` (stereo partly shown) [Compound 722], the EC50 is no more than 1 µM.

Consider `COc1ccc2c(O[C@@H]3C[C@H]4C(=O)N[C@]5(C(=O)O)CC5/C=C\CCCCC[C@H](NC(=O)OC(C)(C)C)C(=O)N4C3)cc(-n3cc(C)cn3)nc2c1` (stereo partly shown) [Compound 734], for which the EC50 was no more than 1 µM. Take `COc1ccc2c(O[C@@H]3C[C@H]4C(=O)N[C@]5(C(=O)O)C[C@H]5/C=C\CCCCC[C@H](NC(=O)OC(C)(C)C)C(=O)N4C3)cc(-c3cccc(C)n3)nc2c1` [Compound 719]: the EC50 is no more than 1 µM. Turning to `COc1ccc2c(O[C@@H]3C[C@H]4C(=O)N[C@]5(C(=O)O)CC5CCCCCCC[C@H](NC(=O)OC5CCCC5)C(=O)N4C3)cc(-n3cccc3)nc2c1` (stereo partly shown) [Compound 907], the EC50 is no more than 1 µM. Turning to `CNc1nc(-c2cc(O[C@@H]3C[C@H]4C(=O)N[C@]5(C(=O)O)C[C@H]5/C=C\CCCCC[C@H](NC(=O)OC(C)(C)C)C(=O)N4C3)c3ccc(OC)cc3n2)cs1` [Compound 729], the EC50 was no more than 1 µM. For the compound `CCNc1nc(-c2cc(O[C@@H]3C[C@H]4C(=O)N[C@]5(C(=O)O)CC5CCCCCCC[C@H](NC(=O)OC5CCCC5)C(=O)N4C3)c3ccc(OC)cc3n2)cs1` (stereo partly shown) [Compound 910], the EC50 was no more than 1 µM.

For the compound `COc1ccc2c(O[C@@H]3C[C@H]4C(=O)N[C@]5(C(=O)O)CC5/C=C\CCCCC[C@H](NC(=O)OC(C)(C)C)C(=O)N4C3)cc(-n3ccnc3)nc2c1` (stereo partly shown) [Compound 718], the EC50 was no more than 1 µM.

In the case of `COc1ccc2c(O[C@@H]3C[C@H]4C(=O)N[C@]5(C(=O)O)C[C@H]5/C=C\CCCCC[C@H](NC(=O)OC(C)(C)C)C(=O)N4C3)cc(C)nc2c1` [Compound 728], the EC50 is greater than 1 µM.

Take `COc1ccc2c(O[C@@H]3C[C@H]4C(=O)N[C@]5(C(=O)O)C[C@H]5/C=C\CCCCC[C@H](NC(=O)OC(C)(C)C)C(=O)N4C3)cc(-c3csc(NC=O)n3)nc2c1` [Compound 735]: the EC50 was no more than 1 µM. The same measure for `COc1ccc2c(O[C@@H]3C[C@H]4C(=O)N[C@]5(C(=O)O)CC5CCCCCCC[C@H](NC(=O)OC5CCCC5)C(=O)N4C3)cc(-c3csc(NC(C)C)n3)nc2c1` (stereo partly shown) [Compound 911]: no more than 1 µM; for `COc1ccc2c(O[C@@H]3C[C@H]4C(=O)N[C@]5(C(=O)O)CC5/C=C\CCCCC[C@H](NC(=O)OC5CCCC5)C(=O)N4C3)cc(-c3csc(NC4CCCC4)n3)nc2c1` (stereo partly shown) [Compound 827]: no more than 1 µM. In the case of `CCOc1cc(O[C@@H]2C[C@H]3C(=O)N[C@]4(C(=O)O)C[C@H]4/C=C\CCCCC[C@H](NC(=O)OC(C)(C)C)C(=O)N3C2)c2ccc(OC)cc2n1` [Compound 712], the EC50 is no more than 1 µM.

With `COc1ccc2c(O[C@@H]3C[C@H]4C(=O)N[C@]5(C(=O)O)C[C@H]5/C=C\CCCCC[C@H](NC(=O)OC(C)(C)C)C(=O)N4C3)cc(C3CCC=CO3)nc2c1` (stereo partly shown) [Compound 732], the EC50 was greater than 1 µM.
